Data published in patent publication US9494573B2, “In vitro tumor in dish kit and method” (University of Kansas, priority 2012, dated 2016).

Assays:
[1] = system: human ovarian cancer epithelial cells from ascites fluid; assay: Tumor in Dish model using primary tumor cells: cancer cells; type: cell-based; conditions: TiD with primary patient cells, FIG. 5
Text: Human ovarian cancer epithelial cells were isolated from the ascites fluid of a patient and combined with normal cells as described in Example 1 to form TiD.

[2] = system: normal cells in the PLiD

For `N.N.[Cl][Pt][Cl]` [cisplatin], the “killing of ovarian cancer cells from the ascites fluid” value [1] was “killed most of the ovarian cancer cells” and the “effect on the surrounding normal cells” value [2] was “affected the normal cells”.
